Values quoted from earlier work in paper PMC9147171, “Pharmacokinetic/Pharmacodynamic Evaluation of a New Purine-2,6-Dione Derivative in Rodents with Experimental Autoimmune Diseases” (Pharmaceutics, 2022).
Like-named read-outs stand apart in the source and are kept apart here.

How the values were obtained:
[1] = test system: PDE7A; conditions: read-out: IC50 (µM) Against PDE Isoform PDE7A; cited from earlier work
[2] = target: T1, hrPDE1B (Homo sapiens, UniProt Q01064); set-up: method as in PMID 31899535; conditions: PDE1B; read-out: IC50 (µM) Against PDE Isoform (CV%) PDE1B; cited from earlier work
T1 construct: purchased SignalChem, Richmond, Canada

[3] = target: T2, hrPDE3A (Homo sapiens, UniProt Q14432); set-up: method as in PMID 31899535; conditions: PDE3A; read-out: IC50 (µM) Against PDE Isoform (CV%) PDE3A; cited from earlier work
T2 construct: purchased SignalChem, Richmond, Canada

[4] = test system: PDE4B; conditions: read-out: IC50 (µM) Against PDE Isoform PDE4B; cited from earlier work
[5] = rats; from the authors' previous investigations; cited from earlier work
[6] = mice; from the authors' previous investigations; cited from earlier work

T1 sequence (Q01064 whole entry, canonical isoform): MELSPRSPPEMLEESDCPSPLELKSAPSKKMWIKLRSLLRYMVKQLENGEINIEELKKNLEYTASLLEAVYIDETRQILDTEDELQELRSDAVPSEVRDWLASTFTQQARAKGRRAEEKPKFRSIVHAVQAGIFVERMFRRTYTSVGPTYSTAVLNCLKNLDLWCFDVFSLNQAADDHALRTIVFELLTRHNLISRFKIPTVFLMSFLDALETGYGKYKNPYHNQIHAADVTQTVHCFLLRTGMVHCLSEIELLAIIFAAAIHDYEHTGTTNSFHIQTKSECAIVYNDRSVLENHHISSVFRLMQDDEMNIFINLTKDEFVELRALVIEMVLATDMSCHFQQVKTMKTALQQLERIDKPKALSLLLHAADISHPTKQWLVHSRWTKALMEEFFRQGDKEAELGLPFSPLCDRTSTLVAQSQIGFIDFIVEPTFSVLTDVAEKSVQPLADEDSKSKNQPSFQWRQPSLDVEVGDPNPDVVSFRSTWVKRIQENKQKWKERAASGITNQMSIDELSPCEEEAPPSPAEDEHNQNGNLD
T2 sequence (Q14432 whole entry, canonical isoform): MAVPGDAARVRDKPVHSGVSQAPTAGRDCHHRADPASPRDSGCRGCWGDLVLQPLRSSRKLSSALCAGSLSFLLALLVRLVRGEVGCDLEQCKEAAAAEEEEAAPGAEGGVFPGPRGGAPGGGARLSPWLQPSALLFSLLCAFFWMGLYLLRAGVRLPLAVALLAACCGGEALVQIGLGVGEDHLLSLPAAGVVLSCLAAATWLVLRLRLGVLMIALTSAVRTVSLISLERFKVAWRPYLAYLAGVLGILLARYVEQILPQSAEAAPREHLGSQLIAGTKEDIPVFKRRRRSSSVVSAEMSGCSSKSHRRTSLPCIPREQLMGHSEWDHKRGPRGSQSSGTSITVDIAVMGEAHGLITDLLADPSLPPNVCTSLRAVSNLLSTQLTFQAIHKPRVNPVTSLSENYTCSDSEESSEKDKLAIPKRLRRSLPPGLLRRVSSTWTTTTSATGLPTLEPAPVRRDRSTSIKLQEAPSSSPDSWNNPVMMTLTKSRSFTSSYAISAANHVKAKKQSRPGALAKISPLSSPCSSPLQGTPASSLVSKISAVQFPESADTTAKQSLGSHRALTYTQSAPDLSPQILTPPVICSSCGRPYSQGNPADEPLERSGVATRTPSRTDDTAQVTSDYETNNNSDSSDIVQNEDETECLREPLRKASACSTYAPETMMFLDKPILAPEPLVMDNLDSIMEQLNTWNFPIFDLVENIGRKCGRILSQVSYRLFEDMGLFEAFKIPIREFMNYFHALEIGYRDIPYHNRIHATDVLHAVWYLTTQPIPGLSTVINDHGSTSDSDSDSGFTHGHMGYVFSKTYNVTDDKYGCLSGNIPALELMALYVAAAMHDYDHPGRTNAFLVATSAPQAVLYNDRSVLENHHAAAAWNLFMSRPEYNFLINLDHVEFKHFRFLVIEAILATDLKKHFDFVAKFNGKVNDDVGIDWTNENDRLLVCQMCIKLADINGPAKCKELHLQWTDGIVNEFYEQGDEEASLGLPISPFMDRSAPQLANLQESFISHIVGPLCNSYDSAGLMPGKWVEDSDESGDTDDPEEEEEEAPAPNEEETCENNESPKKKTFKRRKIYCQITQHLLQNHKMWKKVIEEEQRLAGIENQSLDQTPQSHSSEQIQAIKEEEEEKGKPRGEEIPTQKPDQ

## Cc1ccc([N+](=O)[O-])cc1S(=O)(=O)N(C)C [BRL—50481]
[1]
  IC50: 2.1 µM

## Cn1c(=O)c2c(nc(NCCc3ccccc3)n2CCCC(=O)NN=Cc2ccccc2O)n(C)c1=O [GRMS-55]
[2]
  IC50: 2.5 µM
[3]
  IC50: 13.4 µM
[4]
  IC50: 26.9 µM
[1]
  IC50: 7.3 µM
[5]
  half-life: around 30 min
[6]
  half-life: around 30 min
